One data set relates to MCF7. Put plainly: Cytotoxicity against human MCF7 cells assessed as inhibition of cell growth measured after 72 hrs by MTT assay. The data set is classed as functional, cell-based. As to conditions: MCF7, 72 h. For orientation: Tetrazolium dyes change colour on reduction, which living cells bring about.
The subject of a further data set is BXPC-3. In words: Cytotoxicity against human BXPC-3 cells assessed as inhibition of cell growth measured after 72 hrs by SRB assay. Format: functional, cell-based. As to conditions: BXPC-3, 72 h. A general note: The SRB assay estimates cell density from bound dye.
The test system of another data set is PC-3. In words: Cytotoxicity against human PC-3 cells assessed as inhibition of cell growth measured after 72 hrs by MTT assay. Format: functional, cell-based. As to conditions: PC-3, 72 h.
The nature of data set [1]: Half life of the compound. Format: physicochemical.

In ChEMBL document CHEMBL4699397, “Development of potent CPP6-gemcitabine conjugates against human prostate cancer cell line (PC-3)” (RSC Med Chem, 2020) one finds IC50 and half-life data, which are given here for nine molecules.

*1 amine or outer side, *2 acyl side, *3 side chain or, on linkers, in order; H or OH if unused. Where a SMILES comes first, the peptide text is derived from it. The star is where a group is joined. X1 = O=c1nc(N*)ccn1[C@@H]1O[C@H](CO)[C@@H](O)C1(F)F; Suc = O=C(CCC(=O)[*:2])[*:1]

The IC50 is the midpoint of a concentration-inhibition curve. For orientation: half-life means the time needed for the level to fall by half in the phase considered. A lower half-life goes with fast loss.

H-KLPVMW-NH2: the 50% inhibitory concentration (IC50) with MCF7, in the data set with BXPC-3 and in the data set on PC-3 was more than 1000 nM in each case.
Consider `CSCC[C@H](NC(=O)[C@@H](NC(=O)[C@@H]1CCCN1C(=O)[C@H](CC(C)C)NC(=O)[C@H](CCCCN)NC(=O)[C@@H](N)Cc1c[nH]c2ccccc12)C(C)C)C(N)=O`, for which the 50% inhibitory concentration (IC50) in the data set on MCF7 was 223 nM; with BXPC-3, more than 1000 nM; in the data set with PC-3, more than 1000 nM.
For `CC(C)C[C@H](NC(=O)[C@@H](NC(=O)[C@@H]1CCCN1C(=O)[C@@H](NC(=O)[C@H](Cc1c[nH]c2ccccc12)NC(=O)CCC(=O)Nc1ccn([C@@H]2O[C@H](CO)[C@@H](O)C2(F)F)c(=O)n1)C(C)C)[C@@H](C)O)C(=O)N[C@@H](CCCCN)C(N)=O` ({X1-Suc}-WVPTLK-NH2), the results for the IC50 with MCF7, in the data set on BXPC-3 and in the data set with PC-3 were 4 nM, 200 nM and 14 nM, respectively.
With `Nc1ccn([C@@H]2O[C@H](CO)[C@@H](O)C2(F)F)c(=O)n1` [GEMCITABINE], the IC50 came out at 1.4 nM in the data set on MCF7, 130 nM with BXPC-3 and 74 nM in the data set on PC-3. This molecule registered a half-life in data set [1] of 8 min.
For the molecule `CN(C)C(=N)NC(=N)N` [METFORMIN], the figures for the IC50 with MCF7 and in the data set with PC-3 were 9.9 nM and 189 nM, respectively.
`CC/C(=C(\c1ccccc1)c1ccc(OCCN(C)C)cc1)c1ccccc1` [TAMOXIFEN]: the half-inhibitory concentration (IC50) with PC-3 was more than 1000 nM.
For the molecule H-WVPTLK-NH2, the IC50 with MCF7, in the data set on BXPC-3 and in the data set on PC-3 was more than 1000 nM in each case.
As to `CSCC[C@H](NC(=O)[C@@H](NC(=O)[C@@H]1CCCN1C(=O)[C@H](CC(C)C)NC(=O)[C@H](CCCCN)NC(=O)[C@H](Cc1c[nH]c2ccccc12)NC(=O)CCC(=O)Nc1ccn([C@@H]2O[C@H](CO)[C@@H](O)C2(F)F)c(=O)n1)C(C)C)C(N)=O` ({X1-Suc}-WKLPVM-NH2), the IC50 was 5.1 nM with MCF7, 180 nM with BXPC-3 and 15 nM in the data set on PC-3.
The like results for `CSCC[C@H](NC(=O)[C@@H](NC(=O)[C@@H]1CCCN1C(=O)[C@H](CC(C)C)NC(=O)[C@H](CCCCN)NC(=O)CCC(=O)Nc1ccn([C@@H]2O[C@H](CO)[C@@H](O)C2(F)F)c(=O)n1)C(C)C)C(=O)N[C@@H](Cc1c[nH]c2ccccc12)C(N)=O` ({X1-Suc}-KLPVMW-NH2) were, in that order, 6.9 nM, 170 nM and more than 1000 nM.
